For 10 compounds, IC50, Activity and inhibition in vivo results are on record in ChEMBL document CHEMBL4393710, “Discovery of Dioxino[2,3-f]quinazoline derivative VEGFR-2 inhibitors exerting significant antipro-liferative activity in HUVECs and mice” (Eur J Med Chem, 2019).

A value given as a limit tells only on which side of the number the result lay.

One data set relates to HUVEC. Nature of the data set: Inhibition of VEGF-induced cell proliferation of HUVEC incubated for 72 hrs by CCK8 assay. As to conditions: Homo sapiens. On the technique in general: Tetrazolium assays rely on reduction of a dye to a coloured formazan, in cell work by metabolically active cells.
For a further data set, the system named is L02. Nature of the data set: Antiproliferative activity against human LO2 cells incubated for 72 hrs by CCK8 assay. As to conditions: L02, 72 h.
Another data set relates to HEK293. Nature of the data set: Antiproliferative activity against HEK293 cells incubated for 72 hrs by CCK8 assay. As to conditions: Homo sapiens, HEK293, 72 h.
For data set [1], the target named is Vascular endothelial growth factor receptor 2 (Homo sapiens, UniProt P35968). The experiment in a line: Inhibition of human N-terminal GST-tagged VEGFR2 cytoplasmic domain (790 to 1356 residues) expressed in baculovirus expression system using Ulight-JAK-1(Tyr1023) peptide as substrate preincubated for 30 mins followed by substrate addition and measured after 60 mins by spectrometric method.

A short description of data set [2]: Toxicity in nude mouse xenografted with human SMMC7721 cells assessed as side effect at 60 mg/kg, po administered daily for 6 days. Type of data set: organism-based. The note with it: in vivo, 144 h.
The subject of data set [3] is SMMC-7721. Nature of the data set: Antitumor activity against human SMMC7721 cells xenografted in nude mouse assessed as tumor volume at 60 mg/kg, po administered daily for 6 days and measured on day 6 (reference value: 1990.2 +/- 179.2 mm3). It counts as functional. Background: Xenograft models place foreign cells or tissue in a host animal.
Data set [4] relates to SMMC-7721. The experiment in a line: Antitumor activity against human SMMC7721 cells xenografted in nude mouse assessed as tumor growth inhibition at 60 mg/kg, po administered daily for 6 days and measured on day 9 relative to control. Type of data set: functional. As to conditions: SMMC-7721, po, read-out: TGI.
The subject of data set [5] is SMMC-7721. The experiment in a line: Antitumor activity against human SMMC7721 cells xenografted in nude mouse assessed as tumor growth inhibition at 60 mg/kg, po administered daily for 6 days and measured on day 6 relative to control. It counts as functional. As to conditions: SMMC-7721, po, 144 h, read-out: TGI.
A short description of data set [6]: Toxicity in nude mouse xenografted with human SMMC7721 cells assessed as mortality at 60 mg/kg, po administered daily for 6 days. Type of data set: organism-based. The note with it: in vivo, 144 h.
Data set [7] deals with SMMC-7721. Nature of the data set: Antiproliferative activity against human SMMC7721 cells incubated for 72 hrs by CCK8 assay. It counts as functional, cell-based. The note with it: SMMC-7721, 72 h.
Data set [8] in a line: Toxicity in nude mouse xenografted with human SMMC7721 cells assessed as change in body weight at 60 mg/kg, po administered daily for 6 days and measured every 3 days. Type of data set: organism-based. The note with it: in vivo.
Data set [9] relates to SMMC-7721. Nature of the data set: Antitumor activity against human SMMC7721 cells xenografted in nude mouse assessed as tumor volume at 60 mg/kg, po administered daily for 6 days and measured on day 9 (reference value: 3005.8 +/- 225.3 mm3). Type of data set: functional.

Vascular endothelial growth factor receptor 2, sequence (P35968 whole entry, the tested form may be a part): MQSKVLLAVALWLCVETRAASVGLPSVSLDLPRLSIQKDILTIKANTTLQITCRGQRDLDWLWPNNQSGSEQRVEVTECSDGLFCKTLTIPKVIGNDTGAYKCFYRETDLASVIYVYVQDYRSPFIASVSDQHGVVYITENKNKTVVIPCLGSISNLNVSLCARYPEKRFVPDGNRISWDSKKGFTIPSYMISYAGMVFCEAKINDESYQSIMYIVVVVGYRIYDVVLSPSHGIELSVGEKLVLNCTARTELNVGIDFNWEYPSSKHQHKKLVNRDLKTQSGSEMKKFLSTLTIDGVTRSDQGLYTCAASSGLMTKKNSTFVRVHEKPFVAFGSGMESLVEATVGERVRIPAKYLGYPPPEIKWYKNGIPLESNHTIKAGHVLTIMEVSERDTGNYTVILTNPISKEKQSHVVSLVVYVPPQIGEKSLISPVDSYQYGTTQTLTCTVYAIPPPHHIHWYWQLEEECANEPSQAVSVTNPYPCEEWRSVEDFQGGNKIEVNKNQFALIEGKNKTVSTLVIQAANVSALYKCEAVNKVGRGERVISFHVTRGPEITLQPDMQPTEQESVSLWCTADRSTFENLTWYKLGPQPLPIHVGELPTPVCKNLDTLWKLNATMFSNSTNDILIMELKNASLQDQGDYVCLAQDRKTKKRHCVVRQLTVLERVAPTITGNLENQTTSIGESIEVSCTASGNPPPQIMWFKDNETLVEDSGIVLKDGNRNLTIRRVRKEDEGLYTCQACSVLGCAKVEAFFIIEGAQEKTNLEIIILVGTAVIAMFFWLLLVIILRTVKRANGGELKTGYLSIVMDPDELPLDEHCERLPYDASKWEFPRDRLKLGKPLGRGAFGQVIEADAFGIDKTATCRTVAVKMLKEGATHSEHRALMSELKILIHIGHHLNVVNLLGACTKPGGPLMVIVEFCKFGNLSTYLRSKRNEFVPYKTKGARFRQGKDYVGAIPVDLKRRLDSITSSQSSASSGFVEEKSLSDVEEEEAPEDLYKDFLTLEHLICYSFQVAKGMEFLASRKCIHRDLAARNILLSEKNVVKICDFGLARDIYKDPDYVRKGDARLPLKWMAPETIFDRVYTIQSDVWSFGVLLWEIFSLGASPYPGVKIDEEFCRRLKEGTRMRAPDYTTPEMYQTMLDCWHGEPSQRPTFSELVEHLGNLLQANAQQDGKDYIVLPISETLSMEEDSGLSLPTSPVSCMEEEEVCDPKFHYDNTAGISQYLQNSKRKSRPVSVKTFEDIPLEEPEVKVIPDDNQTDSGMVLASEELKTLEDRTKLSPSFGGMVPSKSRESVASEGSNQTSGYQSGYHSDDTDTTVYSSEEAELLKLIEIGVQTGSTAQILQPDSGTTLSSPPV

For the compound `CC(C)Oc1cc2ncnc(Oc3ccc(NC(=O)Nc4cc(C(F)(F)F)ccc4F)cc3)c2c2c1OCCO2`, the IC50 worked out at 4.2 nM in the data set with HUVEC, 5180 nM with L02 and 3560 nM with HEK293.
In the case of `O=C(Nc1ccc(Oc2ncnc3cc(OCCCN4CCOCC4)c4c(c23)OCCO4)cc1)Nc1cc(C(F)(F)F)ccc1F`, the IC50 came to 2.3 nM with HUVEC, 1010 nM with L02, 994 nM with HEK293 and 1.5 nM in data set [1].
On to `O=C(Nc1ccc(Oc2ncnc3cc(OCCCN4CCOCC4)c4c(c23)OCCO4)cc1F)Nc1cc(C(F)(F)F)ccc1F`, for which the concentration for half-maximal inhibition (IC50) in the data set with HUVEC came to 4.7 nM; in the data set with L02 it was 1510 nM; in the data set with HEK293 it was 1160 nM.
As for `COc1cc2ncnc(Oc3ccc(NC(=O)Nc4cc(C(F)(F)F)ccc4F)cc3)c2c2c1OCCO2`, the IC50 with HUVEC came out at 1.7 nM; with L02, 2190 nM; with HEK293, 2880 nM; in data set [1], 1.5 nM.
In the case of `COc1cc2ncnc(Oc3ccc(NC(=O)Nc4ccc(Cl)c(C(F)(F)F)c4)cc3)c2c2c1OCCO2`, the Activity entry in data set [2] is “Non-Toxic”; with SMMC-7721 [3], 14 mm3; in [6] it was “Non-Toxic”; in data set [8] it was “Toxic”; with SMMC-7721 [9], 63.3 mm3. For the same compound, the IC50 in the data set on HUVEC was 1.2 nM; with L02, 3860 nM; in the data set on HEK293, 7540 nM; in the data set with SMMC-7721 [7], 376 nM; in data set [1], 2.4 nM. Besides, the values for the inhibition in vivo at 60 mg/kg in the data set on SMMC-7721 [4] and in the data set on SMMC-7721 [5] were 118% and 133%, respectively.
With `O=C(Nc1ccc(Oc2ncnc3cc(OCCCN4CCOCC4)c4c(c23)OCCO4)c(F)c1)Nc1cc(C(F)(F)F)ccc1F`, the IC50 in the data set on HUVEC is 1.5 nM; in the data set with L02, 801 nM; with HEK293, 700 nM; in [1], 3.4 nM.
For the compound `COCCOc1cc2ncnc(Oc3ccc(NC(=O)Nc4cc(C(F)(F)F)ccc4F)cc3)c2c2c1OCCO2`, the half-maximal inhibitory concentration (IC50) in the data set on HUVEC was found to be 1.1 nM; in the data set with L02, 1160 nM; in the data set on HEK293, 894 nM; in data set [1], 1.7 nM.
In the case of `COc1cccc(NC(=O)Nc2ccc(Oc3ncnc4cc(OC)c5c(c34)OCCO5)cc2)c1`, the concentration for half-maximal inhibition (IC50) in the data set with HUVEC is 3 nM; with L02, 34300 nM; in the data set on HEK293, > 25000 nM.
On to `O=C(Nc1cc(C(F)(F)F)ccc1F)Nc1ccc(Oc2ncnc3cc(OCCCN4CCOCC4)c4c(c23)OCCO4)cc1Cl`, for which the figures for the 50% inhibitory concentration (IC50) in the data set on HUVEC, with L02 and with HEK293 were 4 nM, 5980 nM and 5180 nM, respectively.
As for `COc1cc2nccc(Oc3ccc(NC(=O)NC4CC4)c(Cl)c3)c2cc1C(N)=O` [LENVATINIB], in the data set with HUVEC, half-maximal inhibition (IC50) was put at 3 nM.

By IC50 is commonly meant the concentration that inhibits the measured activity by half.
